Experimental findings from US4564684A, “3-Amino-1-phenyl-2-pyrazolines” (priority 1980, dated 1986) are described below.

pIC50: −log10 of the molar value. Counter-ions that a name gives are not always drawn.

Assay [1] has as its target cyclo-oxygenase. Put plainly: Inhibition of cyclo-oxygenase in an enzyme assay according to the method of Blackwell and Flower. In kind it is biochemical. The note with it: Table I, read-out: ED50 for inhibition of cyclo-oxygenase.
Assay [2] has as its target lipoxygenase. Put plainly: Inhibition of lipoxygenase in an enzyme assay according to the method of Blackwell and Flower. In kind it is biochemical. The note with it: Table I, read-out: ED50 for inhibition of lipoxygenase.

Turning to `CNC1=NN(c2cccc(C(F)(F)F)c2)CC1` [Example 1, 3-methylamino-1-(3-trifluoromethylphenyl)-2-pyrazoline], the pIC50 in assay [1] and in assay [2] was about 6.52 in each case.
On to `CCNC1=NN(c2cccc(C(F)(F)F)c2)CC1` [Example 2, 3-ethylamino-1-(3-trifluoromethylphenyl)-2-pyrazoline], for which the pIC50 in assay [1] was about 6.10; in assay [2] it was about 6.15.
With `CCCNC1=NN(c2cccc(C(F)(F)F)c2)CC1` [Example 3, 3-propylamino-1-(3-trifluoromethylphenyl)-2-pyrazoline], the pIC50 in assay [1] and in assay [2] was over 6.52 throughout.
Take `CCCCNC1=NN(c2cccc(C(F)(F)F)c2)CC1` [Example 4, 3-butylamino-1-(3-trifluoromethylphenyl)-2-pyrazoline]: the pIC50 in assay [1] and in assay [2] was over 6.52 each time.
For the molecule `FC(F)(F)c1cccc(N2CCC(NCc3ccccc3)=N2)c1` [Example 5, 3-benzylamino-1-(3-trifluoromethylphenyl)-2-pyrazoline hydrochloride], the pIC50 in assay [1] and in assay [2] was about 6.52 in each case.
